According to PubChem BioAssay (NCI):
“And” between values parts separate entries of the source, which are not always exact repeats. Identical values can stand only once.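 Exposure lasted 48 hours, with cells grown in 96-well plates and compounds tested at five concentrations. At the GI50, growth is halved. The concentration for full growth arrest is given as TGI.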

Columns and labels:
Experiment in all cases: DTP human tumour cell line panel, 48 h
[1] = system: OVCAR-5 ovarian
[2] = system: HOP-62 NSCLC
[3] = system: SNB-19 CNS
[4] = system: KM12 colon
[5] = system: SK-MEL-5 melanoma
[6] = system: SNB-75 CNS
[7] = system: COLO 205 colon
[8] = system: NCI-H522 lung
[9] = system: CCRF-CEM leukemia
[10] = system: HCC-2998 colon

SMILES | GI50 [1] | TGI [1] | GI50 [2] | TGI [2] | TGI [3] | GI50 [4] | TGI [4] | GI50 [5] | TGI [5] | GI50 [6] | TGI [6] | GI50 [7] | TGI [7] | GI50 [8] | TGI [8] | GI50 [9] | TGI [9] | TGI [10] | GI50 [3] | GI50 [10]
N/C(=N\N=C\c1ccc(-c2ccccc2)cc1)N[N+](=O)[O-] | > 100 µM | > 100 µM | 2.64 µM | > 100 µM | > 100 µM | 1.27 µM | > 100 µM | 3.52 µM | > 100 µM | 1.06 µM | 6.62 µM | 3.38 µM | > 42.1 µM | 2.13 µM | > 100 µM | 3.1 µM | > 100 µM | – | – | –
O=C1C=C(Br)c2c(-c3ccccc3)oc3cccc1c23 | – | > 100 µM | – | > 100 µM | > 100 µM | – | > 100 µM | – | > 100 µM | – | 42.5 µM | – | > 100 µM | – | > 100 µM | – | > 47.6 µM | > 100 µM | – | –
O=C(N/N=C/c1ccc2c(c1)CCC2)c1ccccc1O | – | > 100 µM | – | 38 µM | 44.7 µM | – | 50.7 µM | – | > 100 µM | – | 38 µM | – | > 100 µM | – | 61.1 µM | – | > 100 µM | 28.3 µM | – | –
COc1ccc(N=c2ssc3c(=S)ssc23)cc1 | – | > 100 µM | – | > 100 µM | – | – | > 100 µM | – | 57.1 µM | – | 75.6 µM | – | – | – | 35.5 µM | – | 28.2 µM | > 100 µM | – | –
COc1cccc(C=Nc2cc(C)ccn2)c1O.COc1cccc(C=Nc2cc(C)ccn2)c1O.[Cu] | 20.2 µM | 44.7 µM | 22.2 µM | 63.7 µM | 60.5 µM | 18.5 µM | 52.5 µM | 7.39 µM | 20.9 µM | 18.8 µM | 44.9 µM | 18.9 µM | 42.8 µM | 22.3 µM | 52.3 µM | 6.01 µM | 32.1 µM | 37.9 µM | 19.7 µM | 16.2 µM
C[C@]12CCC3[C@@H](CC[C@@H]4c5nonc5CC[C@]34C)C1CCC(=O)N2 (stereo partly specified) | – | > 100 µM | – | > 100 µM | > 100 µM | – | > 100 µM | – | > 100 µM | 35.2 µM | > 100 µM | – | > 100 µM | – | > 100 µM | – | > 100 µM | > 100 µM | – | > 100 µM
Nc1ncnc2[nH]ncc12 | 0.765 µM | > 100 µM | 2.23 µM | > 100 µM | > 100 µM | 1.26 µM | 18.3 µM | 4.18 µM | 24.5 µM | 2.1 µM | > 100 µM | 1.55 µM | > 67.3 µM | 0.649 µM | 9.48 µM | 3.57 µM | > 100 µM | 4.85 µM | 13.8 µM | 0.251 µM
COc1ccc2cc(-c3ccoc(=O)c3-c3cc(OC)c(OC)c(OC)c3)ccc2c1 | 0.369 µM | > 100 µM | 0.27 µM | > 100 µM | > 100 µM | 0.0238 µM | – | 0.0379 µM | 4.1 µM | 0.0977 µM | > 100 µM | 0.0449 µM | 0.212 µM | 0.0206 µM | 0.113 µM | 0.0842 µM | > 100 µM | 0.426 µM | 0.125 µM | 0.0744 µM
CCCCCCc1cc(C(=O)Nc2cccc(C(F)(F)F)c2)nc(N)n1 | – | > 100 µM | – | > 100 µM | > 100 µM | – | > 100 µM | – | > 100 µM | – | > 100 µM | – | > 100 µM | – | – | – | > 100 µM | > 100 µM | – | –
CN(C)c1ccc2c(c1)Sc1cc(N(C)C)ccc1N2C(=O)c1ccccc1 | > 100 µM | > 100 µM | 92.4 µM | > 100 µM | > 100 µM | 31.6 µM | > 100 µM | 28.1 µM | > 100 µM | 15.4 µM | 66.3 µM | > 100 µM | > 100 µM | – | – | > 100 µM | > 100 µM | > 100 µM | 34.2 µM | 73.2 µM
CC(=O)OC1CCn2nnc(CO[Si](C)(C)C(C)(C)C)c21 (stereo unspecified) | – | > 100 µM | – | – | > 100 µM | – | > 100 µM | – | > 100 µM | – | > 100 µM | – | > 100 µM | – | > 100 µM | – | – | > 100 µM | – | –
Cc1ccc(-c2cc(-c3ccc(C)cc3)nc(NCCNc3ccnc4cc(Cl)ccc34)n2)cc1 | 1.65 µM | 3.07 µM | 1.89 µM | 3.8 µM | 3.76 µM | 1.75 µM | 3.38 µM | 1.83 µM | 3.44 µM | 1.48 µM | 3.02 µM | 1.69 µM | 3.48 µM | 1.75 µM | 3.51 µM | – | – | 3.28 µM | 1.89 µM | 1.76 µM
CC(C)CC(CC1=CCC2CC1C2(C)C)C1=C(O)C(C)(C)C(=O)C(C)(C)C1=O (stereo unspecified) | 0.386 µM | > 100 µM | 0.303 µM | 1.14 µM | > 100 µM | 0.328 µM | 2.79 µM | 0.206 µM | 0.468 µM | 0.24 µM | 9.67 µM | – | – | 0.271 µM | 0.992 µM | 0.353 µM | 3.12 µM | – | 0.375 µM | –
Brc1cccc(C2SCc3nc4ccccc4n32)c1 (stereo unspecified) | – | > 100 µM | – | 40.7 µM | – | – | 42.7 µM | – | 18.9 µM | – | 3.51 µM | – | 38.6 µM | – | 36.6 µM | – | > 100 µM | – | – | –
CCOC(=O)C(=O)Nc1c(CC)cccc1C(C)C | – | > 100 µM | – | > 100 µM | > 100 µM | – | > 100 µM | – | – | – | > 100 µM | – | > 100 µM | – | – | – | – | > 100 µM | – | –
C[Si](C)(C)OC1(C#N)C2C3CC4C2C(=O)C2C4C3C21 (stereo unspecified) | – | – | – | > 100 µM | > 100 µM | – | > 100 µM | – | > 100 µM | – | > 100 µM | – | > 100 µM | – | – | – | > 100 µM | > 100 µM | – | –
CS(=O)(=O)c1ccc(C(=O)Nc2ccc(Cl)c(-c3ccccn3)c2)c(Cl)c1 | – | > 100 µM and 94.6 µM | – | > 100 µM and 19.3 µM | > 100 µM | – | > 100 µM and 10.2 µM | – | – | 14.4 µM and 3.14 µM | > 100 µM and 79 µM | – | – | – | > 94 µM and 9.43 µM | – | > 100 µM | – | – | –
